The numbers were not newly measured in patent US9827227B2, “Controlled release pharmaceutical formulations of nitazoxanide” (Romark Laboratories L.C., priority 2009, dated 2017), which cites them from elsewhere.

Molecules are shown by their SMILES.

For data set [1] the following is noted: after oral administration of nitazoxanide in humans.
A further data set concerns DNA viruses. The conditions noted are these: in vitro, in words.
For another data set, the system named is hepatitis C virus (HCV). As to conditions: in vitro and in clinical trials, in words.

For the molecule `O=C(Nc1ncc([N+](=O)[O-])s1)c1ccccc1O` [tizoxanide], the half-life in plasma entry in data set [1] is given as “approximately 1.5 hours”. In addition, the “activity against certain DNA viruses” value in the data set on DNA viruses is listed as “active”. Moreover, the “activity against hepatitis C virus (HCV)” value in the data set with hepatitis C virus (HCV) is recorded as “activity against hepatitis C virus”.

On to `CC(=O)Oc1ccccc1C(=O)Nc1ncc([N+](=O)[O-])s1` [Nitazoxanide, 2-(acetolyloxy)-N-(5-nitro-2-thiazolyl) benzamide], for which the “activity against certain DNA viruses” value in the data set on DNA viruses was “active”. Besides, the “activity against hepatitis C virus (HCV)” value in the data set with hepatitis C virus (HCV) is given as “activity against hepatitis C virus”.
